# Laboratory results: US20230126893A1, “[(1,4,5-TRISUBSTITUTED-1H-PYRAZOL-3-YL)SULFANYL]ACETIC ACID DERIVATIVES, SALTS THEREOF, AND USE THEREOF AS ACTIVE HERBICIDAL INGREDIENTS” (BAYER AKTIENGESELLSCHAFT, priority 2020, published 2023)
# Tested on: Stellaria media
# Assay: Pre-emergence herbicidal effect against STEME
# Assay type: in vivo
# Settings: 1280 g/ha, visual score after 3 weeks, 100% = plants have died, 0% = like control plants
# From the text: (§1) 1. Pre-emergence herbicidal effect and crop plant compatibility Seeds of monocotyledonous and dicotyledonous weed plants and crop plants are laid out in sandy loam soil in wood-fibre pots and covered with soil. The compounds of the invention, formulated in the form of wettable powders (WP) or as emulsion concentrates (EC), are then applied to the surface of the covering soil as aqueous suspension or emulsion at a water application rate equating to 600 to 800 L/ha with addition of 0.2% wetting agent. After the treatment, the pots are placed in a greenhouse and kept under good growth conditions for the trial plants. The damage to the test plants is scored visually after a test period of 3 weeks by comparison with untreated controls (herbicidal activity in percent (%): 100% activity=the plants have died, 0% activity=like control plants). [table]
row,Structure (SMILES),Pre-emergence action against STEME
1,CCOC(=O)CSc1nn(-c2ccccc2F)c(-c2ccc(F)c(F)c2)c1C(F)(F)F [Example I-018],100%
2,CCOC(=O)CSc1nn(-c2cc(F)ccc2F)c(-c2ccc(F)cc2)c1Br [Example I-020],100%

# Tested on: Bassia scoparia
# Assay: Post-emergence herbicidal effect against KCHSC
# Assay type: in vivo
# Settings: 1280 g/ha, visual assessment about 3 weeks after treatment, 100% = plants have died, 0% = like control plants
# Protocol: (§2) [table] 2. Post-emergence herbicidal effect and crop plant compatibility Seeds of monocotyledonous and dicotyledonous weed and crop plants are laid out in sandy loam soil in wood-fibre pots, covered with soil and cultivated in a greenhouse under good growth conditions. 2 to 3 weeks after sowing, the test plants are treated at the one-leaf stage. The compounds of the invention, formulated in the form of wettable powders (WP) or as emulsion concentrates (EC), are then sprayed onto the green parts of the plants as aqueous suspension or emulsion at a water application rate equating to 600 to 800 l/ha with addition of 0.2% wetting agent. After the test plants have been left to stand in the greenhouse under optimal growth conditions for about 3 weeks, the action of the preparations is assessed visually in comparison to untreated controls (herbicidal action in percent (%): 100% activity=the plants have died, 0% activity=like control plants).
row,Structure (SMILES),Post-emergence action against KCHSC
1,CCOC(=O)CSc1nn(-c2cc(F)ccc2F)c(-c2ccc(F)cc2)c1Br [Example I-020],90%

# Tested on: Setaria viridis
# Assay: Post-emergence herbicidal effect against SETVI
# Assay type: in vivo
# Settings: 1280 g/ha, visual assessment about 3 weeks after treatment, 100% = plants have died, 0% = like control plants
# Protocol: as §2
row,Structure (SMILES),Post-emergence action against SETVI
1,CCOC(=O)CSc1nn(-c2ccccc2F)c(-c2ccc(F)c(F)c2)c1C(F)(F)F [Example I-018],100%
2,CCOC(=O)CSc1nn(-c2cc(F)ccc2F)c(-c2ccc(F)cc2)c1Br [Example I-020],90%

# Tested on: Poa annua
# Assay: Pre-emergence herbicidal effect against POAAN
# Assay type: in vivo
# Settings: 1280 g/ha, visual score after 3 weeks, 100% = plants have died, 0% = like control plants
# From the text: as §1
row,Structure (SMILES),Pre-emergence action against POAAN
1,CCOC(=O)CSc1nn(-c2ccccc2F)c(-c2ccc(F)c(F)c2)c1C(F)(F)F [Example I-018],100%
2,CCOC(=O)CSc1nn(-c2cc(F)ccc2F)c(-c2ccc(F)cc2)c1Br [Example I-020],100%

# Tested on: Stellaria media
# Assay: Post-emergence herbicidal effect against STEME
# Assay type: in vivo
# Settings: 1280 g/ha, visual assessment about 3 weeks after treatment, 100% = plants have died, 0% = like control plants
# Protocol: as §2
row,Structure (SMILES),Post-emergence action against STEME
1,CCOC(=O)CSc1nn(-c2cc(F)ccc2F)c(-c2ccc(F)cc2)c1Br [Example I-020],90%

# Tested on: Veronica persica
# Assay: Post-emergence herbicidal effect against VERPE
# Assay type: in vivo
# Settings: 1280 g/ha, visual assessment about 3 weeks after treatment, 100% = plants have died, 0% = like control plants
# Protocol: as §2
row,Structure (SMILES),Post-emergence action against VERPE
1,CCOC(=O)CSc1nn(-c2ccccc2F)c(-c2ccc(F)c(F)c2)c1C(F)(F)F [Example I-018],100%
2,CCOC(=O)CSc1nn(-c2cc(F)ccc2F)c(-c2ccc(F)cc2)c1Br [Example I-020],90%

# Tested on: Setaria viridis
# Assay: Pre-emergence herbicidal effect against SETVI
# Assay type: in vivo
# Settings: 1280 g/ha, visual score after 3 weeks, 100% = plants have died, 0% = like control plants
# From the text: as §1
row,Structure (SMILES),Pre-emergence action against SETVI
1,CCOC(=O)CSc1nn(-c2ccccc2F)c(-c2ccc(F)c(F)c2)c1C(F)(F)F [Example I-018],100%
2,CCOC(=O)CSc1nn(-c2cc(F)ccc2F)c(-c2ccc(F)cc2)c1Br [Example I-020],100%

# Tested on: Echinochloa crus-galli
# Assay: Post-emergence herbicidal effect against ECHCG
# Assay type: in vivo
# Settings: 1280 g/ha, visual score after about 3 weeks, 100% = plants have died, 0% = like control plants
# Protocol: as §2
row,Structure (SMILES),Post-emergence action against ECHCG
1,CCOC(=O)CSc1nn(-c2ccccc2F)c(-c2ccc(F)c(F)c2)c1C(F)(F)F [Example I-018],90%
2,CCOC(=O)CSc1nn(-c2cc(F)ccc2F)c(-c2ccc(F)cc2)c1Br [Example I-020],90%

# Tested on: Abutylon threophrasti
# Assay: Post-emergence herbicidal effect against ABUTH
# Assay type: in vivo
# Settings: 1280 g/ha, visual assessment about 3 weeks after treatment, 100% = plants have died, 0% = like control plants
# Protocol: as §2
row,Structure (SMILES),Post-emergence action against ABUTH
1,CCOC(=O)CSc1nn(-c2ccccc2F)c(-c2ccc(F)c(F)c2)c1C(F)(F)F [Example I-018],90%

# Tested on: Digitaria sanguinalis
# Assay: Pre-emergence herbicidal effect against DIGSA
# Assay type: in vivo
# Settings: 1280 g/ha, visual score after 3 weeks, 100% = plants have died, 0% = like control plants
# From the text: as §1
row,Structure (SMILES),Pre-emergence action against DIGSA
1,CCOC(=O)CSc1nn(-c2ccccc2F)c(-c2ccc(F)c(F)c2)c1C(F)(F)F [Example I-018],100%
2,CCOC(=O)CSc1nn(-c2cc(F)ccc2F)c(-c2ccc(F)cc2)c1Br [Example I-020],100%

# Tested on: Veronica persica
# Assay: Pre-emergence herbicidal effect against VERPE
# Assay type: in vivo
# Settings: 1280 g/ha, visual score after 3 weeks, 100% = plants have died, 0% = like control plants
# From the text: as §1
row,Structure (SMILES),Pre-emergence action against VERPE
1,CCOC(=O)CSc1nn(-c2ccccc2F)c(-c2ccc(F)c(F)c2)c1C(F)(F)F [Example I-018],100%
2,CCOC(=O)CSc1nn(-c2cc(F)ccc2F)c(-c2ccc(F)cc2)c1Br [Example I-020],100%

# Tested on: Echinochloa crus-galli
# Assay: Pre-emergence herbicidal effect against ECHCG
# Assay type: in vivo
# Settings: 1280 g/ha, visual score after 3 weeks, 100% = plants have died, 0% = like control plants
# From the text: as §1
row,Structure (SMILES),Pre-emergence action against ECHCG
1,CCOC(=O)CSc1nn(-c2ccccc2F)c(-c2ccc(F)c(F)c2)c1C(F)(F)F [Example I-018],100%

# Tested on: Tripleurospermum inodorum
# Assay: Pre-emergence herbicidal effect against MATIN
# Assay type: in vivo
# Settings: 1280 g/ha, visual score after 3 weeks, 100% = plants have died, 0% = like control plants
# From the text: as §1
row,Structure (SMILES),Pre-emergence action against MATIN
1,CCOC(=O)CSc1nn(-c2ccccc2F)c(-c2ccc(F)c(F)c2)c1C(F)(F)F [Example I-018],100%
2,CCOC(=O)CSc1nn(-c2cc(F)ccc2F)c(-c2ccc(F)cc2)c1Br [Example I-020],100%

# Tested on: Alopecurus myosuroides
# Assay: Post-emergence herbicidal effect against ALOMY
# Assay type: in vivo
# Settings: 1280 g/ha, visual score after about 3 weeks, 100% = plants have died, 0% = like control plants
# Protocol: as §2
row,Structure (SMILES),Post-emergence action against ALOMY
1,CCOC(=O)CSc1nn(-c2cc(F)ccc2F)c(-c2ccc(F)cc2)c1Br [Example I-020],100%

# Tested on: Alopecurus myosuroides
# Assay: Pre-emergence herbicidal effect against ALOMY
# Assay type: in vivo
# Settings: 1280 g/ha, visual score after 3 weeks, 100% = plants have died, 0% = like control plants
# From the text: as §1
row,Structure (SMILES),Pre-emergence action against ALOMY
1,CCOC(=O)CSc1nn(-c2ccccc2F)c(-c2ccc(F)c(F)c2)c1C(F)(F)F [Example I-018],90%
2,CCOC(=O)CSc1nn(-c2cc(F)ccc2F)c(-c2ccc(F)cc2)c1Br [Example I-020],90%

# Tested on: Poa annua
# Assay: Post-emergence herbicidal effect against POAAN
# Assay type: in vivo
# Settings: 1280 g/ha, visual assessment about 3 weeks after treatment, 100% = plants have died, 0% = like control plants
# Protocol: as §2
row,Structure (SMILES),Post-emergence action against POAAN
1,CCOC(=O)CSc1nn(-c2ccccc2F)c(-c2ccc(F)c(F)c2)c1C(F)(F)F [Example I-018],100%
2,CCOC(=O)CSc1nn(-c2cc(F)ccc2F)c(-c2ccc(F)cc2)c1Br [Example I-020],90%

# Tested on: Tripleurospermum inodorum
# Assay: Post-emergence herbicidal effect against MATIN
# Assay type: in vivo
# Settings: 1280 g/ha, visual assessment about 3 weeks after treatment, 100% = plants have died, 0% = like control plants
# Protocol: as §2
row,Structure (SMILES),Post-emergence action against MATIN
1,CCOC(=O)CSc1nn(-c2ccccc2F)c(-c2ccc(F)c(F)c2)c1C(F)(F)F [Example I-018],90%
2,CCOC(=O)CSc1nn(-c2cc(F)ccc2F)c(-c2ccc(F)cc2)c1Br [Example I-020],90%

# Tested on: Digitaria sanguinalis
# Assay: Post-emergence herbicidal effect against DIGSA
# Assay type: in vivo
# Settings: 1280 g/ha, visual score after about 3 weeks, 100% = plants have died, 0% = like control plants
# Protocol: as §2
row,Structure (SMILES),Post-emergence action against DIGSA
1,CCOC(=O)CSc1nn(-c2ccccc2F)c(-c2ccc(F)c(F)c2)c1C(F)(F)F [Example I-018],90%
2,CCOC(=O)CSc1nn(-c2cc(F)ccc2F)c(-c2ccc(F)cc2)c1Br [Example I-020],90%

# Tested on: Lolium rigidum
# Assay: Pre-emergence herbicidal effect against LOLRI
# Assay type: in vivo
# Settings: 1280 g/ha, visual score after 3 weeks, 100% = plants have died, 0% = like control plants
# From the text: as §1
row,Structure (SMILES),Pre-emergence action against LOLRI
1,CCOC(=O)CSc1nn(-c2ccccc2F)c(-c2ccc(F)c(F)c2)c1C(F)(F)F [Example I-018],100%
2,CCOC(=O)CSc1nn(-c2cc(F)ccc2F)c(-c2ccc(F)cc2)c1Br [Example I-020],100%
